Measurements published in patent publication US11253540B2, “Composition including glycosaminoglycan derivative and chemokine receptor activity regulator” (Seikagaku Corporation, priority 2015, dated 2022).

Key:
laser-induced CNV [1] = experiment: Laser-induced CNV models of rat: CNV area in flat mounts 10 days after intravitreal administration; assay type: in vivo; design: key to Test results, CNV area vs. DMSO, t-test: **: P < 0.01 (vs. DMSO), t-test; #: P < 0.05 (vs. Ki19003), t-test; N.S.: Not Significant (vs. DMSO), t-test; key to Test results, CNV area vs. DMSO, Dunnett's test: *: P < 0.05 (vs. DMSO), Dunnett's test; N.S.: Not Significant (vs. DMSO), Dunnett's test; #: P < 0.05; ##: P < 0.01 (vs. GW766994), Dunnett's test; key to Test results, CNV area vs. PBS, t-test: *: P < 0.05 (vs. PBS), t-test; N.S.: Not Significant (vs. PBS), t-test; CNV area, mean: unit not given here; details: for CNV area, mean: 5 μL/eye intravitreal once, 10 days
Protocol: Laser-induced CNV models of rat were prepared, and neovascularization inhibitory effect was examined with respect to intravitreal administration of Composition 10 or Ki19003. BN/CrlCrlj rats (male, CHARLES RIVER LABORATORIES JAPAN, INC.) were used for the preparation of animal models. […] The retina around the optic disk was irradiated with a laser beam to induce CNV. Used for the laser beam irradiation were SCOPISOL solution for eye, Fundus 5.4 mm Laser Lens, a laser photocoagulation device and a slit lamp illumination system. Immediately after the laser beam irradiation, 5 μL/eye of the test substance was administered once into the vitreous bodies of both eyes. Immediately after the administration, one drop of an antimicrobial drug ([…] Ophthalmic Solution 0.5%) was instilled. After 10 days from the preparation, the models were euthanized with CO2. The eyeballs were extracted and immersed in 10% neutral buffered solution of formalin (room temperature, about 60 minutes). Eye cups were prepared, washed with PBS, dehydrated with methanol and immersed in PBS containing 1% bovine serum albumin and 0.5% Triton X-100 (room temperature, about 60 minutes). The retina was removed, and 60 μL of 0.5% fluorescein Griffonia simplicifolia lectin I, FITC-conjugate was added to the eye cups, and the eye cups were allowed to stand (under refrigeration, overnight). By this treatment, vascular endothelial cells of CNV were fluorescently stained with FITC-lectin. Eight slits were made radially in each of the eye cups to thereby obtain flat mounts. These flat mounts were washed twice with PBS containing 0.1% Triton X-100 and embedded on a glass slide with about 120 μL of Prolong Gold Antifade Reagent. A fluorescence image of CNV in the flat mount embedded on a glass slide was taken with a fluorescent microscope. The area of CNV was measured using an image processing software (Image pro exp). The areas of CNV in each group were analyzed by a test (t-test) for unpaired two groups. The significance level was 5% on both sides.

laser-induced CNV [2] = experiment: Laser-induced CNV models of rat: CNV area, flat mounts prepared 4 days after preparation of models; assay type: in vivo; design: key to Test results, CNV area vs. CS, t-test: N.S.: Not Significant (vs. CS), t-test; details: Test Example 19; for CNV area, mean: 5 μL/eye intravitreal once, flat mounts after 4 days, Compound 3 10 mg/ml in PBS, CS (about 40,000) 10 mg/mL in PBS
Protocol: BN/CrlCrlj rats (male, CHARLES RIVER LABORATORIES JAPAN, INC.) were used for the preparation of animal models. Under general anesthesia by intraperitoneal administration of an anesthetic mixture (saline:Somnopentyl=9:1) (about 2 mL/body), Mydrin-P ophthalmic solution was topically instilled to cause mydriasis in both eyes. The retina around the optic disk was irradiated with a laser beam to induce CNV. Used for the laser beam irradiation were SCOPISOL solution for eye, Fundus 5.4 mm Laser Lens, a laser photocoagulation device and a slit lamp illumination system. Immediately after the laser beam irradiation, 5 μL/eye of the test substance was administered once into the vitreous bodies of both eyes. Immediately after the administration, one drop of an antimicrobial drug (VEGAMOX Ophthalmic Solution 0.5%) was instilled.
After 10 days from the preparation, the models were euthanized with CO2. The eyeballs were extracted and immersed in 10% neutral buffered solution of formalin (room temperature, about 60 minutes). Eye cups were prepared, washed with PBS, dehydrated with methanol and immersed in PBS containing 1% bovine serum albumin and 0.5% Triton X-100 (room temperature, about 60 minutes). The retina was removed, and 60 μL of 0.5% fluorescein Griffonia simplicifolia lectin I, FITC-conjugate was added to the eye cups, and the eye cups were allowed to stand (under refrigeration, overnight). By this treatment, vascular endothelial cells of CNV were fluorescently stained with FITC-lectin. Eight slits were made radially in each of the eye cups to thereby obtain flat mounts. These flat mounts were washed twice with PBS containing 0.1% Triton X-100 and embedded on a glass slide with about 120 μL of Prolong Gold Antifade Reagent.
A fluorescence image of CNV in the flat mount embedded on a glass slide was taken with a fluorescent microscope. The area of CNV was measured using an image processing software (Image pro exp).
Laser-induced CNV models of rat were prepared, and neovascularization inhibitory effect was examined with respect to intravitreal administration of Compound 3.
Substantially the same procedure as in ? Method ? for Test Example 1 was repeated, except that flat mounts were prepared 4 days after the preparation of models, instead of 10 days after the preparation of models in Test Example 1.
The areas of CNV in each group were analyzed by a test (t-test) for unpaired two groups. The significance level was 5% on both sides.

laser-induced CNV [3] = details: intravitreal administration, laser-induced CNV model of mouse; cited from earlier work

With `Cc1ccc2c(c1)C1(CCN(CCc3nc(-c4ccccc4)oc3C)CC1)OC(=O)N2` [RS504393] as the compound, how does the “Test results, CNV area vs. DMSO, t-test” value (laser-induced CNV [1]; Test Example 14) read?
The value was “N.S”.

What about the “CNV area, mean” value (laser-induced CNV [1]; Test Example 14, Composition 37 containing 0.01 mg/mL of RS504393, RS504393 0.01 mg/mL in DMSO) of the same compound?
Its value is 44137.

For `NC(N)=NCCC[C@H](NC(=O)[C@@H]1Cc2ccccc2CN1C(=O)CCC(=O)c1ccccc1)C(=O)NCC1CCCCC1` [PS372424], which “CNV area, mean” value (laser-induced CNV [1]; Test Example 15, Composition 38 containing 0.091 mg/mL of PS372424, PS372424 0.1 mg/mL in DMSO) is on record?
The value was 36842.

Which results are given for `Cc1ccc(S(=O)(=O)NC(=O)N2CCC(N3CCC(Oc4ccc(Cl)c(Cl)c4)CC3)CC2)cc1` [AZD3778]?
Test results, CNV area vs. DMSO, t-test (laser-induced CNV [1]; Test Example 8): N.S.; CNV area, mean (laser-induced CNV [1]; Test Example 8, Composition 35 containing 0.1 mg/mL of AZD3778, AZD3778 0.1 mg/mL in DMSO): 43935

Which “CNV area, mean” value (laser-induced CNV [1]; Test Example 4, Compositions 14, 15, 16 containing 1.33, 1.67, 3.33 mg/mL of SB328437, SB328437 2 mg/mL in DMSO) does the source give for `COC(=O)[C@H](Cc1ccc([N+](=O)[O-])cc1)NC(=O)c1cccc2ccccc12` [SB328437] here?
The value was 26040.

And the “Test results, CNV area vs. DMSO, t-test” value (laser-induced CNV [1]; Test Example 9)?
Its value is “* (P < 0.05)”.

And the “CNV area, mean” value (laser-induced CNV [1]; Test Example 9, Composition 36 containing 1 mg/mL of SB328437, SB328437 1 mg/mL in DMSO)?
Its value is 38911.

Which “Test results, CNV area vs. CS, t-test” value (laser-induced CNV [2]) does the source give for “5β-Cholanic Acid-Introduced CS [Compound 3]” here?
The value was “N.S”.

What about the “inhibitory effects of CNV, as compared to CS” value (laser-induced CNV [2]) of the same compound?
The value was “did not show significant inhibitory effects of CNV”.

And the “CNV area, mean” value (laser-induced CNV [2])?
The value was 51925.

Which “suppression of CNV” value (laser-induced CNV [3]) does the source give for heparin here?
The value was “suppressed CNV”.

What does the source list for `O=C(Nc1ccc([N+](=O)[O-])cc1O)Nc1ccccc1Br` [SB225002]?
Test results, CNV area vs. DMSO, t-test (laser-induced CNV [1]; Test Example 5): N.S.; CNV area, mean (laser-induced CNV [1]; Test Example 5, Composition 31 containing 0.018, Composition 32 0.02 mg/mL of SB225002, SB225002 0.02 mg/mL in DMSO): 43121

For heparan sulfate, which “suppression of CNV” value (laser-induced CNV [3]) is on record?
Its value is “suppressed CNV”.

Which results are given for `NC(=O)c1ccc(CNC(=O)NC[C@H]2CN(Cc3ccc(Cl)c(Cl)c3)CCO2)cc1` [GW766994]?
inhibitory effects of CNV, as compared to DMSO (laser-induced CNV [1]; GW766994 dissolved in DMSO, 2 mg/mL and 1.5 mg/mL (Test Examples 6 and 10), both concentrations): did not have inhibitory effects of CNV; Test results, CNV area vs. DMSO, t-test (laser-induced CNV [1]; Test Example 6): N.S.; CNV area, mean (laser-induced CNV [1]; Test Example 6, Composition 33 containing 2 mg/mL of GW766994, GW766994 2 mg/mL in DMSO): 41548; Test results, CNV area vs. DMSO, Dunnett's test (laser-induced CNV [1]; Test Example 10): N.S.; CNV area, mean (laser-induced CNV [1]; Test Example 10, Composition 6 containing 0.71, Composition 7 0.83 mg/mL of GW766994, GW766994 1.5 mg/mL in DMSO): 30795

With chondroitin sulfate [CS] as the compound, how does the “Test results, CNV area vs. PBS, t-test” value (laser-induced CNV [1]; Test Example 18) read?
Its value is “N.S”.

What about the “CNV area, mean” value (laser-induced CNV [1]; Test Example 18, CS (average molecular weight about 140,000) 20 mg/mL in PBS) of the same compound?
The value was 30462.

And the “inhibitory effects of CNV, as compared to PBS” value (laser-induced CNV [1]; Test Example 18, CS 20 mg/mL)?
Its value is “did not show significant inhibitory effects of CNV”.

What about the “CNV area, mean” value (laser-induced CNV [2]) of the same compound?
The value was 50236.
